Test results reported in the METLIN SMRT retention time set (Domingo-Almenara et al. 2019).

Experiment: gradient 5% acetonitrile 3 min, to 50% in 2 min, to 85% in 15 min, held 3 min, 100 µL/min
Settings: column: Zorbax Extend-C18 2.1 x 50 mm; eluents: water / acetonitrile, 0.1% formic acid
How it was run: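 The system's dead and dwell volumes were 40 μL and 900 μL, with a Zorbax Extend-C18 column (2.1 × 50 mm, 1.8 μm) run at 100 μL/min in water and acetonitrile containing 0.1% formic acid each. Pure standards were analyzed in mixtures of ~100 molecules by HPLC–quadrupole time-of-flight mass spectrometry in positive and negative ionization mode. Retention time was assigned from computationally picked, manually inspected adduct peaks.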

| SMILES | RP-LC retention time |
| --- | --- |
| CCCn1ncc(N2CCC(C(=O)NCc3cccs3)CC2)cc1=O | 686 s |
| CCOC(=O)Cn1c(C2CC(=O)N(c3cc(OC)ccc3OC)C2)nc2ccccc21 (configuration not stated) | 725 s |
| Cc1sc(NC(=O)c2ccc(F)cc2)nc1-c1ccc2c(c1)NC(=O)C(C)O2 (configuration not stated) | 935 s |
| Cc1nccn1-c1cc(C(C)C)c(C#N)c2nc3ccccc3n12 | 622 s |
| Cc1oc2ccn(Cc3ccc(F)cc3)c(=O)c2c1C(=O)NCc1ccc(F)cc1F | 1100 s |
| CCn1cc(C)c(C(=O)O)c1CC(=O)NCCc1ccc(C)cc1 | 842 s |
| CCOc1c(C(=O)OC)sc2ccc(NC(=O)c3[nH]nc4c3CCc3ccccc3-4)cc12 | 1140 s |
| COc1ccc(NC(=O)Cn2c(=O)c3cc(-c4ccco4)nn3c3ncccc32)c(OC)c1 | 797 s |
| Cc1noc(C)c1CCC(=O)Nc1nnc(-c2ccsc2)o1 | 628 s |
| COc1ccc(C(=O)N2C[C@@H]3C[C@H](NC(=O)c4ccccc4)[C@H]2C3)c(OC)c1 | 716 s |
| CC(C)=CCOc1cc(O)c2c(=O)cc(-c3ccccc3)oc2c1 | 666 s |
| CC(=O)OCCN1c2ccccc2Sc2cnccc21 | 663 s |
| O=C(Nc1ccc2nc3n(c(=O)c2c1)CCCC3)Nc1ccc(Br)cc1F | 782 s |
| COc1cccc(OC)c1CN1CC(n2cnnc2-c2cccnc2)C1 | 548 s |
| Cc1nc2cc(N3CCCC(C(=O)NCCN4CCOCC4)C3)cnc2nc1C (configuration not stated) | 557 s |
| Cc1ccc2c(c1)c1c3n2CCN(c2nc(-c4ccccc4)cs2)C3CCC1 (configuration not stated) | 901 s |
| Cc1ccc(CNC(=O)C2CCN(S(=O)(=O)c3c(C)[nH]c(C)c3C(=O)N3CCCC3)CC2)cc1 | 720 s |
| C[C@](O)(COc1ccc(C#N)cc1)C(=O)Nc1ccc(C#N)c(C(F)(F)F)c1 | 972 s |
| O=C(Cn1nc(-c2ccco2)ccc1=O)NCCOc1cc(N2CCCCC2)ncn1 | 588 s |
| CCN1CCCC1CNC(=O)Cn1ncn2nc(-c3ccccc3)cc2c1=O (configuration not stated) | 604 s |
| Cc1cc(NC(=O)Cn2c(=O)n(C(C)C)c3ccc(-c4noc(C)n4)cc32)no1 | 755 s |
| COc1ccc(S(=O)(=O)N2C[C@@H]3C[C@H](NC(=O)c4ccccc4)[C@H]2C3)cc1Cl | 907 s |
| O=c1n(CC2CC2)nc2n1CCC(NS(=O)(=O)Cc1ccccc1)CC2 (configuration not stated) | 704 s |

| SMILES | RP-LC retention time |
| --- | --- |
| O=C(CN1C(=O)CCCc2ccccc21)N1CCN(c2ccc(Cl)cc2)CC1 | 944 s |
| COc1ccc(C(=O)N2CCc3ccc(CNC(=O)NCC4CCCO4)cc32)cc1 (configuration not stated) | 712 s |
| CC1CCN(c2nc3c(c(=O)n(Cc4ccccc4Cl)c(=O)n3C)n2C)CC1 | 1170 s |
| COc1ccccc1N1CCN(C(=O)c2csc3nc(-c4ccc(F)cc4)cn23)CC1 | 879 s |
| CCN1C(=O)c2cccnc2Sc2cc(CNC(=O)c3ccn(CC)n3)ccc21 | 697 s |
| CC(=O)c1ccc(S(=O)(=O)N2CCCC(C)(C(=O)NCc3ccc(F)cc3)C2)cc1 (configuration not stated) | 876 s |
| COCc1nnc(NC(=O)c2ccccc2OCc2nc(-c3ccccc3)no2)s1 | 1080 s |
| CCCNc1cc(N2CCCC(CCC(=O)NCCOC)C2)ncn1 (configuration not stated) | 592 s |
| CN(CC1CCOCC1)S(=O)(=O)Cc1ccccc1Cl | 834 s |
| COCCN1C(=O)[C@H]2CN(Cc3ccc(OC)c(OC)c3Cl)C[C@H]2C1=O | 620 s |
| Cc1ccc(C)c(-c2cc3c4nn(CC(=O)NC5CCCC5)c(=O)n4ccn3n2)c1 | 909 s |
| N#Cc1cccc(-c2cn3c(n2)N(C(=O)c2ccccn2)CCC3)c1 | 656 s |
| CCCn1cc(CCNC(=O)c2cc(F)ccc2Cl)c2cccnc21 | 795 s |
| CCOC(=O)c1[nH]c2ccc(OC)cc2c1NC(=S)N1CCN(c2ccccn2)CC1 | 610 s |
| CCn1cc(CN2CCC(N3CC4(CCCCC4)C3c3ccncc3)CC2)cn1 (configuration not stated) | 565 s |
| CCCCNC(=O)c1ccc(-c2nc(CCN(C)C(=O)CC)no2)cc1 | 740 s |
| Cc1ccc(NC(=O)Cn2c(C)nc(C)c(C)c2=O)cc1C | 690 s |
| CCn1cc(S(=O)(=O)Nc2ccc(C)cc2C)c2cccnc21 | 900 s |
| CCN(CC)S(=O)(=O)c1ccc2c(c1)N(CC(=O)NCc1ccc(C)o1)C(=O)C1CCCCN21 (configuration not stated) | 959 s |
| CN1C(=O)c2cc(C(=O)NCc3ccccc3Br)nn2CC1(C)C(=O)NC1CCCC1 (configuration not stated) | 828 s |
| CCN1CCN(C(=O)c2cc(-c3ccc(C)cc3)cn2CC)CC1 | 678 s |
| O=C1COc2ccc(S(=O)(=O)N3CCC(C(=O)Nc4ccccc4)CC3)cc2N1 | 759 s |
| Cc1ccc(NS(=O)(=O)c2cc3n(c2)CCCNC3=O)c(F)c1 | 663 s |

| SMILES | RP-LC retention time |
| --- | --- |
| C/C(=N\O)C1CC(CC(=O)O)C1(C)C (configuration not stated) | 688 s |
| CCOc1ccc(-c2nc3ncccn3c2NCc2ccccc2)cc1 | 758 s |
| CCc1noc(NC(C)=O)c1-c1ccc(OC)c(S(=O)(=O)NC2CCCC2)c1 | 801 s |
| C=CCNC(=O)c1nc(C(=O)N2CCCCCC2)cs1 | 733 s |
| COc1cc(CN2CC(c3nc(-c4ccsc4)nn3C)C2)ccc1OC(C)C | 684 s |
| Cc1cccc(NC(=O)C2CCCN(S(=O)(=O)c3cn(C(C)C)cn3)C2)c1C (configuration not stated) | 878 s |
| CCN(CC)c1nc2ccsc2c(=O)n1CCC(=O)NCc1ccc(F)cc1 | 831 s |
| O=C(O)CC1Sc2ccccc2NC1=O (configuration not stated) | 607 s |
| COC(=O)C1=CN(c2ccccc2)c2ccc(F)cc2S1(=O)=O | 817 s |
| O=C(NCCN1CCN(c2ccc(Cl)cc2)CC1)C1CC1 | 576 s |
| CC(C)CCNC(=O)C1(C)Cn2nc(C(=O)NCc3ccccc3Cl)cc2C(=O)N1C (configuration not stated) | 814 s |
| O=C(NCc1ccccc1)c1c(O)c2cccnc2n(-c2cccc(F)c2)c1=O | 1160 s |
| Cc1ccc(C)c(NC(=O)Cn2c(N3CCC(C)CC3)nc(C)cc2=O)c1 | 772 s |
| CCc1nnc(-c2cc(NS(=O)(=O)CC)c(C)s2)o1 | 810 s |
| CN1c2ccccc2C(=O)NC12CCN(C(=O)c1ccccc1F)CC2 | 712 s |
| COc1ccc(-c2nc3cnccn3c2Nc2c(C)cccc2C)cc1OC | 784 s |
| CCCNC(=O)NC1CCN(c2nc3ccccc3n(CC)c2=O)CC1 | 770 s |
| CCN1C(=O)c2cc(S(=O)(=O)NCc3cccc(Cl)c3)ccc2Oc2cccnc21 | 1030 s |
| CC1(C)C(=O)NCCN1C(=O)CN1C(=O)c2ccccc2C1=O | 594 s |
| Cc1ccc(-c2nnc(-c3ccc(Cl)c(S(=O)(=O)N(C)C)c3)o2)cc1 | 1040 s |
| CCOC(=O)c1sc(NC(=O)c2ccc([N+](=O)[O-])cc2)nc1-c1ccccc1 | 1140 s |
